This is an account of results in patent US9156816B2 (priority 2010, dated 2015).

For data set [1], the system named is Pythium ultimum. Put plainly: Cucumber damping-off (PU) control test. In kind it is in vivo. To be noted: Globisporangium ultimum, 168 h, soil irrigated with 30 ml emulsion at active ingredient concentration of 100 ppm, ratio of healthy seedlings on day 7 after planting vs untreated group. How it is done: 40 ml of sterile soil were placed in plastic cups followed by leveling the surface of the soil. The soil was then irrigated with 30 ml of the aforementioned emulsion of Preparation Example 2 at an active ingredient concentration of 100 ppm. Following irrigation, cucumbers (variety: Sagami Hanjiro) were planted in the soil and covered with 20 ml of contaminated soil (containing Pythium ultimum) from above. The cups were then placed in plastic bags and allowed to stand undisturbed for 3 days in a constant temperature room at 25° C. (dark location […]). Next, the plants were removed from the bags and held in a constant temperature room at 25° C. using a light-dark cycle of 12 hours. On day 7 after planting, the ratios of healthy seedlings were compared between an untreated group and treated group to calculate control effects (control values).

Data set [2] relates to tomato late blight pathogen (Phytophthora infestans). The data set can be described thus: whole plant or invertebrate. The data set is classed as in vivo. To be noted: 96 h, read-out: control value.
Data set [3] deals with Pythium aphanidermatum. Put plainly: Antimicrobial test (mycelia growth inhibition). In kind it is cell-based. To be noted: compound concentration of 1 ppm, PSY medium, 25° C., days 3 to 7 of culturing, read-out: mycelia growth inhibition rate. The procedure:
The compound according to the present invention was dissolved in dimethylsulfoxide and diluted to double the prescribed concentration in a 96-well microplate using PSY medium to obtain a drug solution. On the other hand, a diluted dimethylsulfoxide solution was prepared using PSY medium for use as an untreated group.
A suspension of liquid-cultured test microorganisms (Pythium aphanidermatum) was mixed with an equal volume of the drug solution and cultured in a dark location at 25° C. Mycelia growth was observed on days 3 to 7 of culturing to determine mycelia growth inhibition rates.

For the compound `COC(OC)C(=O)Nc1cccc(CO/N=C(/c2ccccc2)c2nnnn2C)n1` [a-3], the melting point (as a rule, the temperature, or range, at which the solid turns liquid) fell in the range of 88 to 90 °C. Further, the pest or weed control at 100 ppm in data set [1] was at least 50%. Further, in data set [2], the pest or weed control at 100 µg/mL was at least 70%. Also, the inhibition – broadly, the drop in the measured response relative to a control, in per cent – at 1 ppm in data set [3] was at least 50%.

Compound `Cn1nnnc1/C(=N\OCc1cccc(NC(=O)CC2OCCCO2)n1)c1ccccc1` [a-14] showed a melting point of 107 to 108 °C. In data set [1], the pest or weed control at 100 ppm is at least 50%. In addition, in data set [2], the pest or weed control at 100 µg/mL is at least 70%. The inhibition at 1 ppm in data set [3] was at least 50%.

Regarding `CCCOC(C)(OCCC)C(=O)Nc1cccc(CO/N=C(/c2ccccc2)c2nnnn2C)n1` [a-29], the pest or weed control at 100 ppm in data set [1] was at least 50%. The pest or weed control at 100 µg/mL in data set [2] is at least 70%. In addition, the inhibition at 1 ppm in data set [3] is at least 50%.

Turning to `CCOC(C)(OCC(F)(F)F)C(=O)Nc1cccc(CO/N=C(/c2ccccc2)c2nnnn2C)n1` (centres unmarked) [a-30], the pest or weed control at 100 ppm in data set [1] is at least 50%. Besides, the pest or weed control at 100 µg/mL in data set [2] was at least 70%. In addition, the inhibition at 1 ppm in data set [3] was at least 50%.

As for `CCOC(C)(OCCOC)C(=O)Nc1cccc(CO/N=C(/c2ccccc2)c2nnnn2C)n1` (centres unmarked) [a-31], the pest or weed control at 100 ppm in data set [1] is at least 50%. The pest or weed control at 100 µg/mL in data set [2] is at least 70%. The inhibition at 1 ppm in data set [3] was at least 50%.

Turning to `CCOC(C)(OCC)C(=O)Nc1cccc(CO/N=C(/c2ccccc2)c2nnnn2C)n1.Cl` [a-33], the melting point was 70 to 73 °C. In addition, the inhibition at 1 ppm in data set [3] was at least 50%.

The compound `COCC(C)C(=O)Nc1cccc(CO/N=C(/c2ccccc2)c2nnnn2C)n1` (centres unmarked) [b-3] had a melting point of 66 to 68 °C. Also, the pest or weed control at 100 ppm in data set [1] was at least 50%. The inhibition at 1 ppm in data set [3] was at least 50%.

`COC(C)(C)C(=O)Nc1cccc(CO/N=C(/c2ccccc2)c2nnnn2C)n1` [b-6] gave a melting point of 104 to 105 °C. Moreover, the inhibition at 1 ppm in data set [3] is at least 50%.

Regarding `Cn1nnnc1/C(=N\OCc1cccc(NC(=O)C(C)(C)O)n1)c1ccccc1` [b-7], the melting point lay in the range of 144 to 146 °C. Besides, in data set [3], the inhibition at 1 ppm is at least 50%.

The compound `COCC(C)(C)C(=O)Nc1cccc(CO/N=C(/c2ccccc2)c2nnnn2C)n1` [b-8] gave a melting point of 60 to 61 °C. Also, the pest or weed control at 100 ppm in data set [1] was at least 50%. For the same compound, in data set [3], the inhibition at 1 ppm is at least 50%.

`COCCC(C)(C)C(=O)Nc1cccc(CO/N=C(/c2ccccc2)c2nnnn2C)n1` [b-10]: the melting point lay within 86 to 87 °C. Moreover, in data set [1], the pest or weed control at 100 ppm is at least 50%. For the same compound, the inhibition at 1 ppm in data set [3] is at least 50%.

In the case of `Cn1nnnc1/C(=N\OCc1cccc(NC(=O)OCCC2OCC(C)(C)CO2)n1)c1ccccc1` [c-1], in data set [1], the pest or weed control at 100 ppm was at least 50%. Moreover, the pest or weed control at 100 µg/mL in data set [2] was at least 70%. In data set [3], the inhibition at 1 ppm was at least 50%.

Regarding `Cn1nnnc1/C(=N\OCc1cccc(NC(=O)OCC2COCO2)n1)c1ccccc1` (centres unmarked) [c-4], the melting point lay within 104 to 105 °C. In data set [1], the pest or weed control at 100 ppm was at least 50%. Besides, the pest or weed control at 100 µg/mL in data set [2] was at least 70%. In addition, the inhibition at 1 ppm in data set [3] is at least 50%.

For the compound `Cn1nnnc1/C(=N\OCc1cccc(NC(=O)OC2CCC3(CC2)OCCO3)n1)c1ccccc1` [c-5], the pest or weed control at 100 ppm in data set [1] is at least 50%. In addition, in data set [2], the pest or weed control at 100 µg/mL was at least 70%. Further, the inhibition at 1 ppm in data set [3] was at least 50%.

Consider `COC(CC(C)OC(=O)Nc1cccc(CO/N=C(/c2ccccc2)c2nnnn2C)n1)OC` (centres unmarked) [c-6], for which the pest or weed control at 100 ppm in data set [1] was at least 50%. In data set [2], the pest or weed control at 100 µg/mL is at least 70%. Moreover, the inhibition at 1 ppm in data set [3] is at least 50%.

Take `COC(COC(=O)Nc1cccc(CO/N=C(/c2ccccc2)c2nnnn2C)n1)OC` [c-7, (Z)-(1-methyl-1H-tetrazol-5-yl)phenylmethanone-o-[2-(2,2-dimethoxyethoxycarbonylamino)pyridin-6-ylmethyl]oxime]: the pest or weed control at 100 ppm in data set [1] is at least 50%. Also, the pest or weed control at 100 µg/mL in data set [2] is at least 70%. The inhibition at 1 ppm in data set [3] was at least 50%.

Turning to `CCOC(CCOC(=O)Nc1cccc(CO/N=C(/c2ccccc2)c2nnnn2C)n1)OCC` [c-8], in data set [1], the pest or weed control at 100 ppm is at least 50%. In addition, in data set [2], the pest or weed control at 100 µg/mL was at least 70%. The inhibition at 1 ppm in data set [3] is at least 50%.

For the compound `COC(CC(C)(C)OC(=O)Nc1cccc(CO/N=C(/c2ccccc2)c2nnnn2C)n1)OC` [c-9], the pest or weed control at 100 ppm in data set [1] was at least 50%. In addition, in data set [2], the pest or weed control at 100 µg/mL is at least 70%. Further, the inhibition at 1 ppm in data set [3] was at least 50%.

For `CCOC(COC(=O)Nc1cccc(CO/N=C(/c2ccccc2)c2nnnn2C)n1)OCC` [c-10], the pest or weed control at 100 ppm in data set [1] is at least 50%. In addition, the pest or weed control at 100 µg/mL in data set [2] is at least 70%. In data set [3], the inhibition at 1 ppm is at least 50%.

In the case of `CCOC(OC(=O)Nc1cccc(CO/N=C(/c2ccccc2)c2nnnn2C)n1)C(F)(F)F` (stereo not drawn) [d-1], the melting point is 123 to 124 °C. The pest or weed control at 100 µg/mL in data set [2] is at least 70%. Further, the inhibition at 1 ppm in data set [3] was at least 50%.

In the case of `Cn1nnnc1/C(=N\OCc1cccc(NC(=O)OC2CCOCC2)n1)c1ccccc1` [d-3], the melting point lay within 72 to 73 °C. Further, in data set [2], the pest or weed control at 100 µg/mL is at least 70%. In addition, the inhibition at 1 ppm in data set [3] is at least 50%.

`Cn1nnnc1/C(=N\OCc1cccc(NC(=O)OC2CCOC2)n1)c1ccccc1` (stereo not drawn) [d-4] came in with a melting point of 76 to 78 °C. Moreover, the pest or weed control at 100 µg/mL in data set [2] is at least 70%.

With `COCCCC(C)(C)OC(=O)Nc1cccc(CO/N=C(/c2ccccc2)c2nnnn2C)n1` [d-8], the pest or weed control at 100 ppm in data set [1] is at least 50%. The pest or weed control at 100 µg/mL in data set [2] was at least 70%. Moreover, the inhibition at 1 ppm in data set [3] was at least 50%.

Regarding `CCOCCC(C)OC(=O)Nc1cccc(CO/N=C(/c2ccccc2)c2nnnn2C)n1` (stereo not drawn) [d-13], the pest or weed control at 100 ppm in data set [1] was at least 50%. In addition, in data set [2], the pest or weed control at 100 µg/mL is at least 70%. Moreover, in data set [3], the inhibition at 1 ppm was at least 50%.

As for `COCCC(C)OC(=O)Nc1cccc(CO/N=C(/c2ccccc2)c2nnnn2C)n1` (stereo not drawn) [d-14], the pest or weed control at 100 ppm in data set [1] was at least 50%. In addition, the pest or weed control at 100 µg/mL in data set [2] is at least 70%. Also, the inhibition at 1 ppm in data set [3] was at least 50%.

For `CCOCCCOC(=O)Nc1cccc(CO/N=C(/c2ccccc2)c2nnnn2C)n1` [d-15], in data set [1], the pest or weed control at 100 ppm was at least 50%. The pest or weed control at 100 µg/mL in data set [2] is at least 70%. The inhibition at 1 ppm in data set [3] was at least 50%.

For `CCOCC(COC(=O)Nc1cccc(CO/N=C(/c2ccccc2)c2nnnn2C)n1)OCC` (stereo not drawn) [d-17], in data set [1], the pest or weed control at 100 ppm was at least 50%. In addition, the pest or weed control at 100 µg/mL in data set [2] is at least 70%. Besides, the inhibition at 1 ppm in data set [3] was at least 50%.

Turning to `CCOCC(CCOC(=O)Nc1cccc(CO/N=C(/c2ccccc2)c2nnnn2C)n1)OCC` (stereo not drawn) [d-18], in data set [1], the pest or weed control at 100 ppm is at least 50%. Also, the pest or weed control at 100 µg/mL in data set [2] was at least 70%. In data set [3], the inhibition at 1 ppm is at least 50%.
